{
  "source": "ChEMBL document CHEMBL3992494",
  "about": "“Amaryllidaceae alkaloids with new framework types from Zephyranthes candida as potent acetylcholinesterase inhibitors” (Eur J Med Chem, 2017)",
  "key": {"Acetylcholinesterase": {"biological_target": "Acetylcholinesterase (Electrophorus electricus, UniProt O42275)", "sequence (O42275 whole entry)": "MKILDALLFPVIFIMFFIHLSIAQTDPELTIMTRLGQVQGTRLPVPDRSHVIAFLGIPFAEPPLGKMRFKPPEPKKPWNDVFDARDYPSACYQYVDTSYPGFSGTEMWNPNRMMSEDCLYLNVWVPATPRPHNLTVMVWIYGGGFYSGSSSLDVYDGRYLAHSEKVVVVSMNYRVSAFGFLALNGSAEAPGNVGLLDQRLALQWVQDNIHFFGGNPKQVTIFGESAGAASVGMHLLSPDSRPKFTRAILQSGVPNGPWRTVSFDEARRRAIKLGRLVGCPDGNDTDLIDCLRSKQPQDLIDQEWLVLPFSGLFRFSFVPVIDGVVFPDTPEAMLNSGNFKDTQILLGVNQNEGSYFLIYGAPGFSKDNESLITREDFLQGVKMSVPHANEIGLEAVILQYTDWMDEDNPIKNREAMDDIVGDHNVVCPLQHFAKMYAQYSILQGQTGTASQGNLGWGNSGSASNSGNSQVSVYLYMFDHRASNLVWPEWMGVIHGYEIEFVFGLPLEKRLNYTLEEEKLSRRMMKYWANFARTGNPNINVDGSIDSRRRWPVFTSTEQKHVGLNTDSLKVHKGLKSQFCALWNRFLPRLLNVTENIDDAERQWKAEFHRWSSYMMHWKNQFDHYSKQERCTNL", "assay": "Inhibition of electric eel AChE using acetylthiocholine iodide as substrate measured every minute for fifteen minutes by Ellman's method"}, "[1]": {"biological_target": "Acetylcholinesterase (Electrophorus electricus) (UniProt O42275)", "sequence (O42275 24-633 limits assumed)": "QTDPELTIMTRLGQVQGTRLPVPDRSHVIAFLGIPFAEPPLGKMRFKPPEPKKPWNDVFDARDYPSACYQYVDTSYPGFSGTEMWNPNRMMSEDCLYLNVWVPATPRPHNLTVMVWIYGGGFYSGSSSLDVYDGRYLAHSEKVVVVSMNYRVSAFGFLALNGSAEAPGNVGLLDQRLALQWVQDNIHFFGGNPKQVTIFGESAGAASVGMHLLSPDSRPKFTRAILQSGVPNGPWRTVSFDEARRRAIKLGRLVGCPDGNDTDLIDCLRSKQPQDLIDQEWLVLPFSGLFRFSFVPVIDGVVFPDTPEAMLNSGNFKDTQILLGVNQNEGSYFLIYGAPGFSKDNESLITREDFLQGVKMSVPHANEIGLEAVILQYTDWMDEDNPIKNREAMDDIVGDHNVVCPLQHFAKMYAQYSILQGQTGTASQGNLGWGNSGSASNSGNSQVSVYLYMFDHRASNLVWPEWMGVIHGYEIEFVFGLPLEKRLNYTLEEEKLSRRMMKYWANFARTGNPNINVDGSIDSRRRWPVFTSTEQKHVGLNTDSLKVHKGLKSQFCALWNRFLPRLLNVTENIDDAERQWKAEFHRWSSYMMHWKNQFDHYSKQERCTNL", "assay": "Inhibition of electric eel AChE at 200 uM using acetylthiocholine iodide as substrate measured every minute for fifteen minutes by Ellman's method"}},
  "note": "The source made the active and inactive calls. No cut-off for these calls is given here.",
  "data": [
    {"smiles": "CNc1ccc(COC)cc1-c1cc2c(cc1CO)OCO2", "values": [
      {"measurement": "IC50", "setting": "Acetylcholinesterase", "result": 8.82, "unit": "µM"}
    ]},
    {"smiles": "COc1cc([C@@H]2[C@H](O)CC=C3CCN(C)[C@H]32)cc(OC)c1OC", "values": [
      {"measurement": "inhibition", "setting": "[1]", "result": "inactive"}
    ]},
    {"smiles": "CO[C@H]1C=C[C@@]2(c3ccc(O)cc3)CCN[C@H]2C1", "values": [
      {"measurement": "inhibition", "setting": "[1]", "result": "inactive"}
    ]}
  ]
}
